Results on 16 compounds are retold here after PubChem BioAssay AID328 (DTP/NCI, 2004).

For the assay, the system named is BDF1 mice, P388 leukemia ip, median survival T/C. Kind of assay: NCI In Vivo Anticancer Drug Screen. Data for tumor model P388 Leukemia (intraperitoneal) in B6D2F1 (BDF1) mice. As to conditions: endpoint: median survival time, higher = longer survival. The procedure, abridged:
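Each value expresses how treatment altered survival: treated-mouse outcome over vehicle-mouse outcome, both groups bearing the transplanted tumour.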

[1] abbreviates: dose: 50.0 mg/kg/injection, schedule: Q01DX009 (ip), vehicle: saline with Tween-80.
[2] abbreviates: dose: 100.0 mg/kg/injection, schedule: Q01DX009 (ip), vehicle: saline with Tween-80.
The mark [3] stands for this setting: dose: 200.0 mg/kg/injection, schedule: Q01DX009 (ip), vehicle: saline with Tween-80.
[4] abbreviates: dose: 25.0 mg/kg/injection, schedule: Q01DX009 (ip), vehicle: saline with Tween-80.
The mark [5] stands for this setting: dose: 50.0 mg/kg/injection, schedule: Q01DX005 (ip), vehicle: saline with Tween-80.
Setting [6] is: dose: 100.0 mg/kg/injection, schedule: Q01DX005 (ip), vehicle: saline with Tween-80.
The mark [7] stands for this setting: dose: 200.0 mg/kg/injection, schedule: Q01DX005 (ip), vehicle: saline with Tween-80.

“And” between values parts separate entries of the source, which are not always exact repeats. Equal entries are not always repeated. Toxic doses and inconclusive results are not listed.

As for `Cc1ccc(N(OC(=O)c2ccccc2)C(C)(C)C)cc1`, the T/C was 93 % of control (dose: 25.0 mg/kg/injection, schedule: Q04DX002 (ip), vehicle: saline with Tween-80); 109 % of control (dose: 50.0 mg/kg/injection, schedule: Q04DX002 (ip), vehicle: saline with Tween-80); 111 % of control and 113 % of control (dose: 100.0 mg/kg/injection, schedule: Q04DX002 (ip), vehicle: saline with Tween-80).
With `CC(C)c1ccccc1OS(=O)(=O)c1ccc([N+](=O)[O-])cc1`, the T/C (dose: 100.0 mg/kg/injection, schedule: Q04DX003 (ip), vehicle: saline sonified) was 90 % of control; the T/C (dose: 200.0 mg/kg/injection, schedule: Q04DX003 (ip), vehicle: saline sonified) is 95 % of control; the T/C (dose: 400.0 mg/kg/injection, schedule: Q04DX003 (ip), vehicle: saline sonified) is 95 % of control.
In the case of `NC(C(=O)O)c1cccc(Cl)c1` (centres undefined), the T/C (dose: 100.0 mg/kg/injection, schedule: Q01DX001 (ip), vehicle: Klucel (hydroxypropylcellulose) (HPC)) is 91 % of control; the T/C (dose: 200.0 mg/kg/injection, schedule: Q01DX001 (ip), vehicle: Klucel (hydroxypropylcellulose) (HPC)) is 108 % of control; the T/C (dose: 400.0 mg/kg/injection, schedule: Q01DX001 (ip), vehicle: Klucel (hydroxypropylcellulose) (HPC)) is 95 % of control.
In the case of `CS(=O)(=O)OCCn1c(=O)n(CCOS(C)(=O)=O)c(=O)n(CCOS(C)(=O)=O)c1=O`, the T/C is, setting by setting: (dose: 100.0 mg/kg/injection, schedule: Q01DX009 (ip), vehicle: saline sonified) 90 % of control; (dose: 100.0 mg/kg/injection, schedule: Q04DX003 (ip), vehicle: saline with Tween-80) 90 % of control; (dose: 200.0 mg/kg/injection, schedule: Q01DX009 (ip), vehicle: saline sonified) 110 % of control; (dose: 200.0 mg/kg/injection, schedule: Q04DX003 (ip), vehicle: saline with Tween-80) 100 % of control; (dose: 400.0 mg/kg/injection, schedule: Q01DX009 (ip), vehicle: saline sonified) 90 % of control; (dose: 400.0 mg/kg/injection, schedule: Q04DX003 (ip), vehicle: saline with Tween-80) 100 % of control.
As for `CCCCC(C)C(=O)CC(SCC)c1ccc(Cl)c(Cl)c1` (centres undefined), the T/C is, setting by setting: under setting [1], 99 % of control; under setting [2], 99 % of control; under setting [3], 96 % of control.
As for `Clc1cc(N2CC2)nc(N2CC2)n1`, the T/C was 90 % of control (dose: 0.11 mg/kg/injection, schedule: Q01DX009 (ip), vehicle: saline); 95 % of control (dose: 0.17 mg/kg/injection, schedule: Q01DX009 (ip), vehicle: saline); 275 % of control (dose: 0.27 mg/kg/injection, schedule: Q01DX009 (ip), vehicle: saline); 295 % of control (dose: 0.4 mg/kg/injection, schedule: Q01DX009 (ip), vehicle: saline); 157 % of control (dose: 0.62 mg/kg/injection, schedule: Q01DX009 (ip), vehicle: saline); 230 % of control (dose: 1.25 mg/kg/injection, schedule: Q01DX009 (ip), vehicle: saline). Besides, the T/C is 109 % of control (dose: 1.56 mg/kg/injection, schedule: Q01DX001 (ip), vehicle: saline); 104 % of control (dose: 3.12 mg/kg/injection, schedule: Q04DX003 (ip), vehicle: saline); 163 % of control (dose: 6.5 mg/kg/injection, schedule: Q01DX001 (ip), vehicle: saline); 168 % of control (dose: 6.5 mg/kg/injection, schedule: Q04DX003 (ip), vehicle: saline).
As for `N=c1c2c(C(N)=O)cn(C3OC(CO)C(O)C3O)c2ncn1O` (centres undefined), the T/C was 122 % of control (dose: 0.75 mg/kg/injection, schedule: Q01DX009 (ip), vehicle: saline with Tween-80); 154 % of control (dose: 1.5 mg/kg/injection, schedule: Q01DX009 (ip), vehicle: saline with Tween-80); 180 % of control (dose: 2.0 mg/kg/injection, schedule: Q01DX009 (ip), vehicle: saline with Tween-80); 122 % of control (dose: 2.0 mg/kg/injection, schedule: Q04DX003 (ip), vehicle: saline with Tween-80); 160 % of control (dose: 2.9 mg/kg/injection, schedule: Q04DX003 (ip), vehicle: saline with Tween-80); 117 % of control (dose: 4.4 mg/kg/injection, schedule: Q04DX003 (ip), vehicle: saline with Tween-80). The T/C (dose: 6.7 mg/kg/injection, schedule: Q04DX003 (ip), vehicle: saline with Tween-80) was 166 % of control; the T/C (dose: 10.0 mg/kg/injection, schedule: Q04DX003 (ip), vehicle: saline with Tween-80) was 190 % of control; the T/C (dose: 15.0 mg/kg/injection, schedule: Q04DX003 (ip), vehicle: saline with Tween-80) was 123 % of control.
On to `O=C(NC12CC3CC(CC(C3)C1)C2)C(F)(F)F`, for which the T/C is 98 % of control under setting [1], 105 % of control under setting [2] and 102 % of control under setting [3].
Consider `CCCCCCCCCCCC(=O)CCCCC`, for which the T/C reads like this: (dose: 100.0 mg/kg/injection, schedule: Q04DX003 (ip), vehicle: other) 100 % of control; (dose: 200.0 mg/kg/injection, schedule: Q04DX003 (ip), vehicle: other) 100 % of control; (dose: 400.0 mg/kg/injection, schedule: Q04DX003 (ip), vehicle: other) 104 % of control.
Consider `Cc1cc2c(c3ncccc13)OCN(Cc1ccc(Cl)c(Cl)c1)C2`, for which the T/C was 113 % of control (dose: 12.5 mg/kg/injection, schedule: Q01DX009 (ip), vehicle: saline with Tween-80); 108 % of control under setting [4]; 104 % of control under setting [1].
With `C[N+](C)(C)CCOC(=O)/C=C/c1cnc[nH]1`, the T/C is 97 % of control (dose: 5.0 mg/kg/injection, schedule: Q01DX009 (ip), vehicle: saline); 95 % of control (dose: 10.0 mg/kg/injection, schedule: Q01DX009 (ip), vehicle: saline); 117 % of control (dose: 20.0 mg/kg/injection, schedule: Q01DX009 (ip), vehicle: saline).
As for `Cc1cccn2c(C)nnc12`, the T/C is, setting by setting: under setting [4], 110 % of control; under setting [1], 101 % of control; under setting [2], 99 % of control.
As for `O=NN(CS(=O)(=O)O)c1ccccc1`, the T/C runs as follows: (dose: 50.0 mg/kg/injection, schedule: Q01DX001 (ip), vehicle: saline with Tween-80) 104 % of control; (dose: 50.0 mg/kg/injection, schedule: Q04DX003 (ip), vehicle: Klucel (hydroxypropylcellulose) (HPC)) 104 % of control; (dose: 100.0 mg/kg/injection, schedule: Q01DX001 (ip), vehicle: saline with Tween-80) 104 % of control; (dose: 100.0 mg/kg/injection, schedule: Q01DX009 (ip), vehicle: Klucel (hydroxypropylcellulose) (HPC)) 104 % of control; (dose: 100.0 mg/kg/injection, schedule: Q04DX003 (ip), vehicle: Klucel (hydroxypropylcellulose) (HPC)) 113 % of control; (dose: 200.0 mg/kg/injection, schedule: Q01DX001 (ip), vehicle: saline with Tween-80) 122 % of control. Further, the T/C runs as follows: (dose: 200.0 mg/kg/injection, schedule: Q01DX009 (ip), vehicle: Klucel (hydroxypropylcellulose) (HPC)) 108 % of control; (dose: 200.0 mg/kg/injection, schedule: Q04DX003 (ip), vehicle: Klucel (hydroxypropylcellulose) (HPC)) 109 % of control.
Turning to `CCN1c2c(nc(N)[nH]c2=O)NCC1CNc1ccc(C(=O)NC(CCC(=O)O)C(=O)O)cc1` (centres undefined), the T/C reads like this: (dose: 100.0 mg/kg/injection, schedule: Q01DX009 (ip), vehicle: saline) 101 % of control; (dose: 200.0 mg/kg/injection, schedule: Q01DX009 (ip), vehicle: saline) 105 % of control; (dose: 400.0 mg/kg/injection, schedule: Q01DX009 (ip), vehicle: saline) 105 % of control.
Consider `Cc1nc2ccccc2c(=O)n1-c1nccs1`, for which the T/C runs as follows: under setting [5], 102 % of control; under setting [6], 107 % of control; under setting [7], 102 % of control.
Take `O=c1oc2ccc(Cl)cc2n1Cc1ccc(Cl)cc1`: the T/C is, setting by setting: under setting [5], 99 % of control; under setting [6], 92 % of control; under setting [7], 92 % of control.
